In patent US20250163016A1, “PYRIDINE DERIVATIVE, PREPARATION METHOD THEREFOR AND USE THEREOF” (CHENGDU EASTON BIOPHARMACEUTICALS CO., LTD., priority 2022, published 2025) one finds IC50 and TGI data, which are given here for 3 compounds.

In experiment [1] the target is T1, LSD1 (Homo sapiens, UniProt O60341).
T1 construct: purchased Active Motif 31432
Kind of experiment: LSD1 activity test (HTRF). Format: biochemical. As to conditions: H3(1-21)K4 me1-biotin substrate, read-out: IC50, inhibitory activity on LSD1. The procedure: In this test, a homogeneous time resolved fluorescence (HTRF) technology was utilized, and the inhibitory activity of compounds on LSD1 was detected by adopting a two-step method. The first step was to incubate LSD1, compounds of different concentrations, and a biotin-labeled methylated polypeptide substrate (H3(1-21)K4 me1-biotin) at the room temperature for fixed time.
A corresponding solution with a 1000-fold final concentration was formed by dilution in a 384-well Source plate, and then Echo550 was used for transferring 10 nL to a 384-well reaction plate for being tested.
An inhibition percentage was calculated using a maximum value, a minimum value, and a signal value (maximum value: fluorescence intensity of 5 μL of 2× enzyme solution+5 μL of 2× substrate mixed solution+10 nL of 100% DMSO+10 μL of detection solution; minimum value: fluorescence intensity of 5 μL of 1× reaction solution+5 μL of 2× substrate mixed solution+10 nL of 100% DMSO+10 μL of detection solution; and signal value: fluorescence intensity of 5 μL of 2× enzyme solution+5 μL of 2× substrate mixed solution+10 nL of diluted compound to be tested+10 μL of detection solution), and a calculation formula was as follows: […]
Using a logarithm of the concentration as an X axis and the percentage inhibition rate as a Y axis, a dose-response curve was fitted using a formula log(inhibitor) vs. response-Variable slope (Four parameters) of analysis software Graphpad Prism 5 to obtain the IC50 value of each compound on the enzyme activity.

Experiment [2] concerns HL-60 cell subcutaneous heterograft tumor. Kind of experiment: In-vivo efficacy in HL-60 cell subcutaneous heterograft tumor model. As to conditions: HL-60 xenograft, qd, p.o., 10 mg/Kg, 10 days. On the set-up: species or system Balb/C nu mice. The procedure:
• DMEM culture medium containing 10% fetal bovine serum (FBS), 37° C., 5% CO2.
Balb/C nu mice, female, 6-8 weeks, weight about 18-22 grams, and each mouse was subcutaneously inoculated with 0.1 mL (1×10^7 cells+matrigel) of HL-60 cells on the right side. When an average volume of tumors reached 100-200 cubic millimeters, group administration was performed, see the table below (Table 13) for administration dosages and methods. The tumor volume was measured twice a week, the weights of the mice as well as lengths and widths of tumors were recorded in each time of measurement, and the tumor volume=length×width×width/2 mm^3. When the average tumor volume of a solvent group grew to 3000 cubic millimeters or above, administration was ended, and an average tumor volume difference between a tested compound group and the solvent group was obtained via comparison. The tumor suppression effects of the compounds were evaluated with TGI (%), which could reflect a tumor growth inhibition rate.

Experiment [3] concerns the target T2, hERG ion channel (Homo sapiens, UniProt Q12809).
T2 construct: expressed in transfected cells; host or cells: HEK293
Description: In-vitro hERG inhibitory activity (whole cell patch clamp, HEK293 cells). Format: cell-based. As to conditions: HEK293 cells stably expressing hERG channels, read-out: IC50 on hERG current.
Description: A whole cell sheet technology was used to detect the blocking effects of compounds on hERG channels on HEK293 cells stably expressing hERG channels, and a median inhibitory concentration IC50 of the compound was determined. As part of cardiac safety evaluation, its safety in-vitro screening for cardiac toxicity was preliminarily evaluated.
• HEK293 cells stably expressing hEGR ion channels
Electrodes were drawn using PC-10 (Narishige, Japan). The whole cell patch clamp was used for recording, and noise was filtered using one fifth of a sampling frequency. The cells were clamped at −80 mV, then depolarized to 40 mV using square waves lasting for 4 seconds, and then hyperpolarized to −40 mV using square waves lasting for 2 seconds to obtain an hERG tail current. This procedure was repeated every 20 seconds. The hERG tail current was a pure hERG current. A maximum current triggered by the second square wave was detected, after the maximum current was stable, the compounds were tested through perfusion, and after reaction was stable, a blocking intensity was calculated.

T2 sequence (Q12809 whole entry): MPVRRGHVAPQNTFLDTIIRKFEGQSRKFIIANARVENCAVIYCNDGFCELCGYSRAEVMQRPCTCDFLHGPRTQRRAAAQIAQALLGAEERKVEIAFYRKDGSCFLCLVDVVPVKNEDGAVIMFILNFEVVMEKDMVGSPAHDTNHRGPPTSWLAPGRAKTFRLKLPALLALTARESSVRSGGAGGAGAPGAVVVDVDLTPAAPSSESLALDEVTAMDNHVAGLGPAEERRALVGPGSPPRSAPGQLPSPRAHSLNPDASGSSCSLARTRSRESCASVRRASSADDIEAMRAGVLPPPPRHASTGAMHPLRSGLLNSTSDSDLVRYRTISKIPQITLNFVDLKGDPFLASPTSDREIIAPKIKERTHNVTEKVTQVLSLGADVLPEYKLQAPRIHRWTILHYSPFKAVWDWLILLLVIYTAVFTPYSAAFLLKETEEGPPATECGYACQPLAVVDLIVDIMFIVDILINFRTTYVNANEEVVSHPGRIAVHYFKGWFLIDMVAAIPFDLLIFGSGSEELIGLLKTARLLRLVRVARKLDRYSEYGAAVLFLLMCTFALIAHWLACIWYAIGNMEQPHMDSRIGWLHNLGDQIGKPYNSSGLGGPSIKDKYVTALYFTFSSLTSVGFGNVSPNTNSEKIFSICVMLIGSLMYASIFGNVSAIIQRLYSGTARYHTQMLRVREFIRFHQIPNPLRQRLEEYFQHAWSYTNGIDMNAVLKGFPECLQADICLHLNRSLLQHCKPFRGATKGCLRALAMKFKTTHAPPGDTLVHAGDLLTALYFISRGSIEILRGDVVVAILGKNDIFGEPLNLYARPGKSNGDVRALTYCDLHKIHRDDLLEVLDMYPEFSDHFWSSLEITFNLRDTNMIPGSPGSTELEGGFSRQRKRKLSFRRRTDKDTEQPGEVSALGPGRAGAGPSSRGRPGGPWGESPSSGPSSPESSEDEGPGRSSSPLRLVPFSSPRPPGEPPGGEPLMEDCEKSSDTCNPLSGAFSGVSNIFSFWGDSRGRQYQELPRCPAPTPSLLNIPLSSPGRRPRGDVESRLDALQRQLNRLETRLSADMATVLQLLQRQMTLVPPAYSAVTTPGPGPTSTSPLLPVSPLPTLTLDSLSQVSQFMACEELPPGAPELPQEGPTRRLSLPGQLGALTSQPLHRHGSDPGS

Take `CC(C)(O)Cn1nc(F)c2cc(-c3c(C#N)cc(N4CCC(N)CC4)nc3-c3ccc(C#N)c(F)c3)c(F)cc21` [Compound 36, 6-(4-aminopiperid-1-yl)-2-(4-cyano-3-fluorophenyl)-3-(3,6-difluoro-1-(2-hydroxyl-2-methylpropyl)-1H-indazol-5-yl)isonicotinonitrile]: in experiment [1], the IC50 worked out at 0.45 nM. On to `CC(C)(O)Cn1ncc2cc(-c3c(C#N)cc(N4CCC(N)CC4)nc3-c3ccc(C#N)c(F)c3)c(F)cc21` [Compound 16, 6-(4-aminopiperid-1-yl)-2-(4-cyano-3-fluorophenyl)-3-(6-fluoro-1-(2-hydroxyl-2-methylpropyl)-1H-indazol-5-yl)isonicotinonitrile], for which the figures for the IC50 in experiment [1] and in experiment [3] were 0.23 nM and greater than 10000 nM, respectively. Also, the TGI in experiment [2] is on record as 73.2%. Consider `COc1ccc(-c2c(-c3ccc(C#N)c(F)c3)nc(N3CCC(N)CC3)n(C)c2=O)cc1F` [CC-90011, reference compound], for which, in experiment [2], the TGI was found to be 35.3%.
